Results from the NIST ThermoML archive (doi:10.1016/j.jct.2017.04.009).

Experiment: xn = mol fraction of the nth substance listed
Details: Liquid, pressure decay method, x2 = 0

## CCCCCCn1cc[n+](C)c1.O=S(=O)([O-])C(F)(F)F [1-hexyl-3-methylimidazolium trifluoromethanesulfonate] + FC(F)C(F)(F)F
303.2 K, 97.2 kPa
  binary diffusion coefficient: 2.38e-10 m2/s
313.2 K, 98.5 kPa
  binary diffusion coefficient: 3.05e-10 m2/s
323.2 K, 99.1 kPa
  binary diffusion coefficient: 4.17e-10 m2/s
333.2 K, 100.9 kPa
  binary diffusion coefficient: 5.25e-10 m2/s
343.2 K, 103.8 kPa
  binary diffusion coefficient: 6.19e-10 m2/s
